Assay results from article PMC6532841 (PLoS Genetics, 2019).

Legend:
Test in all cases: cAMP inhibition assay (ALPHAScreen), transfected CHO-K1
Format in all cases: cell-based
mouse HCA2 = molecular target: T1, mouse HCA2 (Mus musculus, UniProt Q9EP66)
T1 construct: gene Hcar2; full-length, N-terminal HA and C-terminal FLAG tag, CHO-K1
Description: cAMP inhibition assay (ALPHAScreen), transfected CHO-K1 on mouse HCA2

human HCA2 = molecular target: T2, human HCA2 (Homo sapiens, UniProt Q8TDS4); conditions: read-out: HCA3 / Basal cAMP (% of mock-transfected)
T2 construct: gene HCAR2; full-length, N-terminal HA and C-terminal FLAG tag, pcDps, transient in CHO-K1
Description: cAMP inhibition assay (ALPHAScreen), transfected CHO-K1 on human HCA2

orangutan HCA2 = molecular target: T3, orangutan HCA2 (Pongo abelii, UniProt A0A8I5YUU0)
T3 construct: gene HCAR2; full-length, HA/FLAG tags, CHO-K1
Description: cAMP inhibition assay (ALPHAScreen), transfected CHO-K1 on orangutan HCA2

human HCA3 = molecular target: T4, human HCA3 (Homo sapiens, UniProt P49019); conditions: read-out: EC50 (μM) (95% CI)
T4 construct: gene HCAR3; full-length, N-terminal HA and C-terminal FLAG tag, pcDps, transient in CHO-K1
Description: cAMP inhibition assay (ALPHAScreen), transfected CHO-K1 on human HCA3

siamang HCA3 = molecular target: T5, siamang HCA3 (Symphalangus syndactylus, UniProt Z9POU2MJD9); conditions: read-out: EC50 (μM) (95% CI)
T5 construct: full-length, HA/FLAG tags, CHO-K1
Description: cAMP inhibition assay (ALPHAScreen), transfected CHO-K1 on siamang HCA3

chimpanzee HCA3 = molecular target: T6, chimpanzee HCA3 (Pan troglodytes, UniProt A0A2J8MD62); conditions: agonist; 2 μM forskolin; HBSS
T6 construct: gene HCAR3; full-length, HA/FLAG tags, CHO-K1
Description: cAMP inhibition assay (ALPHAScreen), transfected CHO-K1 on chimpanzee HCA3

orangutan HCA3 = molecular target: T7, orangutan HCA3 (Pongo pygmaeus, UniProt A0A4Y1JWR4); conditions: read-out: EC50 (μM) (95% CI)
T7 construct: gene HCAR3; full-length, HA/FLAG tags, CHO-K1
Description: cAMP inhibition assay (ALPHAScreen), transfected CHO-K1 on orangutan HCA3

mouse HCA1 = molecular target: T8, mouse HCA1 (Mus musculus, UniProt Q8C131)
T8 construct: gene Hcar1; full-length, N-terminal HA and C-terminal FLAG tag, CHO-K1
T8 sequence (Q8C131 1-343): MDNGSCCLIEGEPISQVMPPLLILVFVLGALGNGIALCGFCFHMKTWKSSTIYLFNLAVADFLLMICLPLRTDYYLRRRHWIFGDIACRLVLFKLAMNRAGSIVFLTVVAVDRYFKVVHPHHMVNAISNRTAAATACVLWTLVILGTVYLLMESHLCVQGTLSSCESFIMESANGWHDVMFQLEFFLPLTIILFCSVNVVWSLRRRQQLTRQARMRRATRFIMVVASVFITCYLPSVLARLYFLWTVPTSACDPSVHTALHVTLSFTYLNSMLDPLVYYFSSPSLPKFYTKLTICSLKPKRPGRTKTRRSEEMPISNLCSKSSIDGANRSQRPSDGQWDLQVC
Description: cAMP inhibition assay (ALPHAScreen), transfected CHO-K1 on mouse HCA1

human HCA1 = molecular target: T9, human HCA1 (Homo sapiens, UniProt Q9BXC0); conditions: read-out: HCA2 / Basal cAMP (% of mock-transfected)
T9 construct: gene HCAR1; full-length, N-terminal HA and C-terminal FLAG tag, pcDps, transient in CHO-K1
Description: cAMP inhibition assay (ALPHAScreen), transfected CHO-K1 on human HCA1

chimpanzee HCA1 = molecular target: T10, chimpanzee HCA1 (Pan troglodytes, UniProt A0A2I3T0E0)
T10 construct: gene HCAR1; full-length, HA/FLAG tags, CHO-K1
Description: cAMP inhibition assay (ALPHAScreen), transfected CHO-K1 on chimpanzee HCA1

gorilla HCA1 = molecular target: T11, gorilla HCA1 (Gorilla gorilla, UniProt A0A2I2YNR0)
T11 construct: gene HCAR1; full-length, HA/FLAG tags, CHO-K1
Description: cAMP inhibition assay (ALPHAScreen), transfected CHO-K1 on gorilla HCA1

T2 sequence (Q8TDS4 whole entry): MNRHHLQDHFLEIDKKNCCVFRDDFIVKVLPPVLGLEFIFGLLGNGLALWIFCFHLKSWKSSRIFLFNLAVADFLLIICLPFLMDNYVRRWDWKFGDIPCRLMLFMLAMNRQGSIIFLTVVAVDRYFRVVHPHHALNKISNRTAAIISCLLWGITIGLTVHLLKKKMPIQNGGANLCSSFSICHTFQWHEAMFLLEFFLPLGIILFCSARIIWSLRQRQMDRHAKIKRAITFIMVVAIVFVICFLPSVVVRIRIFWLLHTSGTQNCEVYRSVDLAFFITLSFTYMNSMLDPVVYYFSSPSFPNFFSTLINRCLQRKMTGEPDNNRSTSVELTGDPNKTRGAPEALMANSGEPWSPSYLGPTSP
T4 sequence (P49019 whole entry): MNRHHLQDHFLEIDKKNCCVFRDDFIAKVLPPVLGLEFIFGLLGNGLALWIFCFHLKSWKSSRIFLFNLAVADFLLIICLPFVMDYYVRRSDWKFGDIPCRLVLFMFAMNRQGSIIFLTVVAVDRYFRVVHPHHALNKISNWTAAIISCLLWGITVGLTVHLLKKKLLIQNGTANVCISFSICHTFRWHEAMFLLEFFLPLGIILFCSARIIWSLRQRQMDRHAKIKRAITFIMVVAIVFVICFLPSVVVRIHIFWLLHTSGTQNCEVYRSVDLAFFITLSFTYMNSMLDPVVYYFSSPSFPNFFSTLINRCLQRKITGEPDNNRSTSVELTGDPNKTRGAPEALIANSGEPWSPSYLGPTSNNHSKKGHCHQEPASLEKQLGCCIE
T10 sequence (A0A2I3T0E0 1-346): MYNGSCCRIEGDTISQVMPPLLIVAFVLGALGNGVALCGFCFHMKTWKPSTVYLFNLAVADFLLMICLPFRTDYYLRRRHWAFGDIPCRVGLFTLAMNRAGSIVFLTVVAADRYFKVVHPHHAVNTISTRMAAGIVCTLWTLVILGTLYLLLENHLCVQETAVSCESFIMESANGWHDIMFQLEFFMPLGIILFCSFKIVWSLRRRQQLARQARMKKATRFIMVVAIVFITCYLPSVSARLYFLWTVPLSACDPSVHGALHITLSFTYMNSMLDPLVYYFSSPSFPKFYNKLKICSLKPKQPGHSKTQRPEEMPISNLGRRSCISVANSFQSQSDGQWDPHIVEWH
T3 sequence (A0A8I5YUU0 1-363): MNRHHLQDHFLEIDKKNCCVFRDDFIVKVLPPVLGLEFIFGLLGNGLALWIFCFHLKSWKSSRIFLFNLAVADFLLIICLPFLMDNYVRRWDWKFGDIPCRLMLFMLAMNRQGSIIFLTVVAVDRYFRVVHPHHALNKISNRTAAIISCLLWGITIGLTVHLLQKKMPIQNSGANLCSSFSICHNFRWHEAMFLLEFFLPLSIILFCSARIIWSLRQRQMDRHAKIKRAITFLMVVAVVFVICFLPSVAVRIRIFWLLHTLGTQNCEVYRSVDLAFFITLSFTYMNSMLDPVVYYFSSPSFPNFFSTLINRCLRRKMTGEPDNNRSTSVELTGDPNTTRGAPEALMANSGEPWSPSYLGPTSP
T1 sequence (Q9EP66 whole entry): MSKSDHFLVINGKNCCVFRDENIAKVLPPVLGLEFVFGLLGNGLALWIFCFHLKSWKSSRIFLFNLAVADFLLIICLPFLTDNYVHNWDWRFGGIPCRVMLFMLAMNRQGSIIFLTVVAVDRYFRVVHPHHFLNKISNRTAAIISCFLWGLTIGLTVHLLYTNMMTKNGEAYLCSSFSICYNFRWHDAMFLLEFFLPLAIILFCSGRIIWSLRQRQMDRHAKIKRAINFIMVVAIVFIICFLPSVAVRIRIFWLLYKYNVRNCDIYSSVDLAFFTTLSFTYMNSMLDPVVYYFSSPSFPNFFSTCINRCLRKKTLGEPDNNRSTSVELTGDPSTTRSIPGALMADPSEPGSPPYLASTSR
T7 sequence (A0A4Y1JWR4 1-363): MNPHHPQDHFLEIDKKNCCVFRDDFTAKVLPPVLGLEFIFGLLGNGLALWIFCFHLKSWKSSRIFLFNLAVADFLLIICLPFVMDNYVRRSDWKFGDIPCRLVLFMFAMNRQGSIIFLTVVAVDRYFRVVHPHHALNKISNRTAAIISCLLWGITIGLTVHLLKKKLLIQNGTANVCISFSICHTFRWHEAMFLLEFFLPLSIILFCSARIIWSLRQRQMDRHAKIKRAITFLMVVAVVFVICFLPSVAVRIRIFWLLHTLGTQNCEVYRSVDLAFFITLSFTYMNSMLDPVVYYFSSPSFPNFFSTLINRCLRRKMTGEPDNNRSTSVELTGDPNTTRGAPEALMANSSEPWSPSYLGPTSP
T11 sequence (A0A2I2YNR0 1-346): as the sequence (A0A2I3T0E0 1-346) above, with I23V, L249S counted along it
T9 sequence (Q9BXC0 whole entry): as the sequence (A0A2I3T0E0 1-346) above, with M131V, T141A, L148V, L249S counted along it

SMILES: C[C@@H](O)CC(=O)O [D-3HB]
- EC50 (mouse HCA2): 1030 µM
- EC50 (human HCA2): 530 µM
- EC50 (orangutan HCA2): 680 µM

SMILES: O=C(O)[C@H](O)Cc1ccccc1 [D-PLA]
- EC50 (human HCA3): 0.15 µM
- EC50 (siamang HCA3): 0.28 µM
- EC50 (μM) (95% CI) (chimpanzee HCA3): 0.13 (0.08–0. 22) μM
- EC50 (orangutan HCA3): 1.2 µM

SMILES: C[C@H](O)C(=O)O [L-lactate]
- EC50 (mouse HCA1): 2900 µM
- EC50 (human HCA1): 2400 µM
- EC50 (chimpanzee HCA1): 4100 µM
- EC50 (gorilla HCA1): 2300 µM
